The numbers were not newly measured in patent US20260315605A1, “PROTACS FOR ASK1 PROTEIN DEGRADATION: PREPARATION AND USE THEREOF” (COUNCIL OF SCIENTIFIC AND INDUSTRIAL RESEARCH, priority 2023, published 2026), which cites them from elsewhere.

The test system of one data set is NASH patients. The note with it: Phase III, Harrison et al. 2020.
In another data set the test system is ASK1/MAPK pathway. The note with it: Harrison et al. 2020.

Consider `Cc1cc(F)c(C(=O)Nc2cccc(-c3nncn3C(C)C)n2)cc1-n1cnc(C2CC2)c1` [selonsertib], for which, in the data set on NASH patients, the “clinical outcome, fibrosis improvement” value is given as “failed in Phase III clinical trial of fibrosis improvement in NASH patients”. Moreover, the anti-fibrotic activity result in the data set on ASK1/MAPK pathway was “promising anti-fibrotic activity”.
